In patent publication US9534004B2, “Crystalline forms of ceftaroline fosamil” (Sandoz AG, priority 2012, dated 2017):

Key:
Format in all cases: physicochemical
[1] = Storage at different relative humidities (composition / pKa constancy); settings: for change of composition when stored at different relative humidities: pKa of the drug substance not affected
Description: Both ceftaroline fosamil acetic acid solvate monohydrate and ceftaroline fosamil propionic acid solvate monohydrate of EP1310502 A1 contain carbon acids in their crystal structure. […] Consequently in order to avoid batch-wise adjusting of the pH adjusting excipient, ceftaroline fosamil acetic acid solvate monohydrate and ceftaroline fosamil propionic acid solvate monohydrate of EP1310502 A1 need to be stored at low relative humidities in order to ensure a constant carbon acid amount and therefore a constant pKa value of the drug substance.

[2] = Humidity and temperature controlled XRPD (sorptive/desorptive cycle, 0-90% RH); settings: RH varied between 0 and 90%, 25° C.
Description: The positions of certain XRPD peaks of form H change when varying the RH between 0 and 90%. XRPD measurements in this range show anisotropic peak shifts to higher 2-theta angles on drying, which are reversible when increasing the relative humidity. These shifts are due to the shrinkage respectively the expansion of the unit cell caused by humidity dependent water contents in the sample. […] Table 1 lists some characteristic XRPD peaks from diffractograms recorded at increasing relative humidities during the sorptive cycle of the experiment.
For humidity and temperature controlled XRPD measurements samples were equilibrated in a VGI 2000M humidity chamber (SMS, Middlesex UK) with integrated peltier heat pump, circulating fluid pump and water reservoir to ensure uniform temperature distribution and stable sample humidities. RH controlled sorptive and desorptive measurements were recorded between 0%-90% RH+/−0.3% RH in 10% steps with an equilibrium time of 2 hours between consecutive measurements.

Residual solvent content = settings: form obtained from slurry in aqueous ethanol
Description: The amounts of residual solvents of the novel forms H and D of ceftaroline fosamil of the present invention are well within the allowed ICH-limits. E.g. for the production of form H of ceftaroline fosamil of the present invention no organic solvent is used as this specific form is obtained from a slurry in water. Form D is obtained from a slurry of ceftaroline fosamil in aqueous ethanol. […] Therefore ceftaroline fosamil forms H and D are suitable forms for the preparation of a medicament.

| Structure (SMILES) | fate of carbon acid in the crystal structure at increased relative humidities ([1]; increased relative humidities, decreased carbon acid amount affects pKa of drug substance) | physical (solid form) stability on varying relative humidity, by XRPD [2] | change of composition when stored at different relative humidities [1] | ethanol amount (residual solvent) (Residual solvent content) |
| --- | --- | --- | --- | --- |
| CCO/N=C(\C(=O)N[C@@H]1C(=O)N2C(C(=O)[O-])=C(Sc3nc(-c4cc[n+](C)cc4)cs3)CS[C@H]12)c1nsc(NP(=O)(O)O)n1 [ceftaroline fosamil acetic acid solvate monohydrate, reference compound] | partially replaced by water | – | – | – |
| CCO/N=C(\C(=O)N[C@@H]1C(=O)N2C(C(=O)[O-])=C(Sc3nc(-c4cc[n+](C)cc4)cs3)CS[C@H]12)c1nsc(NP(=O)(O)O)n1 [form D, ceftaroline fosamil] | – | no peak shifts are observed | only show variations in their water content | below 0.5% |
| CCO/N=C(\C(=O)N[C@@H]1C(=O)N2C(C(=O)[O-])=C(Sc3nc(-c4cc[n+](C)cc4)cs3)CS[C@H]12)c1nsc(NP(=O)(O)O)n1 [form H, ceftaroline fosamil] | – | a phase transformation can be excluded | only show variations in their water content | – |
